The source of these data is patent US20070299029A1, “Hepatic stellate cell specific promoter and uses thereof” (Agency for Science, Technology and Research, priority 2005, published 2007).

Like-named read-outs stand apart in the source and are kept apart here.

The subject of series [1] is T6/GFAP-lacZ cells. Description: tetrazolium-based proliferation assay of T6/GFAP-lacZ cells. To be noted: 48 hours, low serum (0.5% FBS) medium, read-out: IC50 of proliferation inhibition. Type of series: cell-based, rat. Here is the method: FIG. 14 illustrates that EGCG and genistein suppressed proliferation of the T6/GFAP-lacZ cells. Cells were grown in full medium to 70-80% confluence in 96-well plates, followed by compound treatment of various concentrations (0-40 μM) in a low serum medium for 48 hours before assaying for proliferation. Signal was normalized against vehicle treatment (0 μM compound). Data was obtained from three independent experiments and presented as mean ±SE.
However our genistein IC50 value for the T6/GFAP-lacZ cells was three times lower than that for the T6 cells cultured in DMEM containing 10% FBS (Kang et al., (2001) supra). Our additional data also confirmed that no significant difference in IC50 value was observed between the T6 and the T6/GFAP-lacZ cells (data not shown).

In series [2] the test system is T6/GFAP-lacZ cells. Nature of the series: X-gal stained images of T6/GFAP-lacZ cells (cell number). To be noted: 24 hours, low serum (0.5% FBS) DMEM. Type of series: cell-based, rat. The method, then: FIG. 15 depicts X-gal staining of T6/GFAP-lacZ cells. Incubation with A) DMSO vehicle control; B) 25 μM EGCG; and C) 40 μM genistein in a low serum DMEM for 24 hours. Images were captured after 60 min of X-gal staining;
(§1) A lacZ reporter assay kit for cell staining (InvivoGen, CA, USA) was used to detect the reporter gene activity in T6/GFAP-lacZ cells treated with EGCG or genistein. The staining results were documented with a digital camera (DP12) attached to an Olympus inverted bright field microscope (IX51) after development for 60 min. For quantification, the β-galactosidase activity in cell extracts was measured using a chemiluminescent assay kit (Roche, Mannheim, Germany) in a 96-well plate format, according to the manufacturer's instructions. Briefly, cells were washed twice with ice-cold 1×PBS (pH 7.4), lysed for 30 minutes at room temperature with the lysis buffer, and supernatant was collected for assays. Protein concentration was determined with a BCA protein assay kit (Pierce, Ill., USA). Specific β-galactosidase activity was obtained by normalizing against total cellular protein content.
EGCG is a major catechin from green tea leaves associated with a wide range of beneficial activities including anti-oxidation, anti-inflammation and anti-fibrosis, whereas genistein is a major flavonoid found abundantly in soy bean with anti-tumor and pro-apoptotic activities. […]

A further series deals with GFAP-lacZ transgene. Nature of the series: chemiluminescent β-galactosidase activity assay of GFAP-lacZ transgene expression in T6/GFAP-lacZ cells. Type of series: cell-based, rat. Here is the method: (§2) Cells were initially seeded in 12-well plates in DMEM supplemented with 10% FBS and weaned to a low serum DMEM (0.5% FBS) at a confluence of 70-80% for 12 hours of adaptation. Cells were then incubated with different concentrations of compounds for various amounts of time before being assayed for β-galactosidase activity and GFAP mRNA. For compound attenuation studies, cells were treated with a pro-fibrotic cytokine (TGF-β1 or PDGF-BB) either sequentially or concurrently with a compound (EGCG or genistein). In the sequential scheme, cells were first treated with a cytokine for 1-3 days, then the cytokine-containing culture medium was replaced with a fresh medium containing a particular compound only for various times. Details of the cytokine/compound treatments can be found in the individual figure legends.
as §1

A further series relates to endogenous rat GFAP mRNA. Description: real-time RT-PCR for endogenous rat GFAP mRNA in T6/GFAP-lacZ cells. In kind it is cell-based. Here is the method: as §2
Total RNA was reverse-transcribed to cDNA using Taqman's reverse transcription reagent (Applied Biosystems, CA, USA). A total of 200 ng of RNA in 7.7 μl of nuclease-free water was added to 2 μl 10× reverse transcriptase buffer, 4.4 μl 25 mM magnesium chloride, 4 μl deoxyNTP mixtures, 1 μl random hexamers, 0.4 μl RNase inhibitor and 0.5 μl reverse transcriptase (50 U/μl) in a final reaction volume of 20 μl. The reaction was performed for 10 min at 25° C. (annealing), 30 min at 48° C. (cDNA synthesis) and 5 min at 95° C. (enzyme denaturation).
Real-time quantitative PCR was carried out with an ABI 7500 Fast Real-time PCR System (Applied Biosystems, CA, USA). Two micro liters of sample cDNA were used in each PCR reaction, with β-actin gene as a reference for normalization. The primers and probes for rat β-actin and GFAP were ordered from Taqman's assay-on-demand database. The PCR reaction was performed under a default profile consisting of 95° C. for 20 seconds (enzyme denaturation) and 40 cycles of amplification (denaturation 3 seconds, annealing and extension 30 seconds). Some of the real-time RT-PCR reactions were separated on an agarose gel for visual confirmation of discrete products (data not shown).
Relative quantitation of the target mRNA was calculated using the comparative threshold cycle (CT) methods as described in the User Bulletin #2 (ABI Prism 7700 Sequence Detection System). CT indicates the fractional cycle number at which the amount of amplified target reaches a fixed threshold within the linear phase of gene amplification. ΔCT, which reflects the difference between CT target and CT β-actin, is inversely correlated to the abundance of mRNA transcripts in the samples. ACT for each sample was normalized against control experiment or calibrator and expressed as ΔΔCT. Relative quantitation is given by 2^−ΔΔCT to express the up-regulation or down-regulation of the target gene under the treatments compared to the control.
(Real-time PCR tracks product formation cycle by cycle.)

For series [3] the following is noted: Yang et al. (1998); cited from earlier work.

In the case of `O=C(O[C@@H]1Cc2c(O)cc(O)cc2O[C@@H]1c1cc(O)c(O)c(O)c1)c1cc(O)c(O)c(O)c1` [EGCG, epigallocatechin gallate], the IC50 in the series on T6/GFAP-lacZ cells [1] worked out at 31 µM. Moreover, the “proliferation inhibition (fewer cells than control)” value in the series with T6/GFAP-lacZ cells [2] (25 μM EGCG) is reported as “significant proliferation inhibition”. Further, the “PDGF-induced GFAP-lacZ elevation, % of the transgenic control” value in the series with GFAP-lacZ transgene (10 ng/ml PDGF-BB, incubation with 10 μM of EGCG for two days) amounted to 60%. Moreover, the “GFAP-lacZ transgene expression (β-galactosidase activity), % of the control” value in the series on GFAP-lacZ transgene (5 μM EGCG, 2 hours) was 82%; with GFAP-lacZ transgene (20 μM EGCG, 2 hours), 55%. Moreover, the “GFAP-lacZ transgene expression (β-galactosidase activity), % of the control level” value with GFAP-lacZ transgene (20 μM EGCG, 4 hours) is given as 73%. The “inhibitory effect on GFAP-lacZ transgene expression” value with GFAP-lacZ transgene (EGCG all dosages (up to 20 μM), 24 hours) was “completely abolished”. Further, the “β-galactosidase activity, % of TGF-β1-alone control” value in the series with GFAP-lacZ transgene (concurrent: 10 ng/ml TGF-β1 with 20 μM EGCG 26 hours) was found to be 66%; with GFAP-lacZ transgene (sequential: 10 ng/ml TGF-β1 24 hours, then 20 μM EGCG 2 hours, not statistically significant), 87%. For the same compound, in the series on endogenous rat GFAP mRNA (10 ng/ml PDGF, incubation with 10 μM of EGCG for two days), the “PDGF-induced GFAP elevation, % of the endogenous control” value stood at 8%. In addition, the “GFAP transcription, % of the control level” value with endogenous rat GFAP mRNA (130 nM EGCG, 48 hours) was 34%. Besides, the “endogenous GFAP mRNA, % of the control” value with endogenous rat GFAP mRNA (10 μM EGCG, 24 hours (maximum suppression)) amounted to 39%. The “GFAP transcription at increasing dosages” value with endogenous rat GFAP mRNA (EGCG dosages above 130 nM up to 20 μM, 48 hours) is “no further suppression”. Further, the “endogenous GFAP mRNA, % of TGF-β1-alone control” value is given as 29% with endogenous rat GFAP mRNA (concurrent: 1 ng/ml TGF-β1 with 5 μM EGCG, 56 hours) and 45% in the series with endogenous rat GFAP mRNA (sequential: 1 ng/ml TGF-β1 48 hours, then 5 μM EGCG 8 hours). Also, the “half-life in human plasma” value in series [3] was “about 5 hours”.
As to `O=c1c(-c2ccc(O)cc2)coc2cc(O)cc(O)c12` [genistein], the IC50 with T6/GFAP-lacZ cells [1] (Rattus norvegicus) is 25 µM. Also, in the series with T6/GFAP-lacZ cells [2] (40 μM genistein), the “proliferation inhibition (fewer cells than control)” value is recorded as “significant proliferation inhibition”. The “GFAP-lacZ transgene expression (β-galactosidase activity), % of the control” value in the series on GFAP-lacZ transgene (40 μM genistein, 24 hours (largest suppression)) is given as 65%. Besides, the “PDGF-BB-induced GFAP-lacZ, % of PDGF-BB-alone control” value amounted to 48% in the series on GFAP-lacZ transgene (concurrent: 40 μM genistein and 10 ng/ml PDGF-BB, 72 hours); 79% with GFAP-lacZ transgene (sequential: 10 ng/ml PDGF-BB 48 hours, then 40 μM genistein 24 hours). In addition, the “β-galactosidase activity, % of the TGF-β1-alone control” value with GFAP-lacZ transgene (concurrent: 40 μM genistein and 10 ng/ml TGF-β1, 48 hours) came out at 43%. For the same compound, the “suppressing effect on TGF-β1-induced β-galactosidase activity” value with GFAP-lacZ transgene (sequential: 10 ng/ml TGF-β1 24 hours, then 40 μM genistein 24 hours) is given as “negligible”. Further, in the series on endogenous rat GFAP mRNA (10 μM genistein, time course 0-72 hours), the “effect on endogenous GFAP mRNA” value is “less predictable, ranging from suppression at 24 hours to induction at 72 hours”. Also, the “endogenous GFAP mRNA, % of the control” value in the series with endogenous rat GFAP mRNA (20 μM genistein, 8 hours) turned out to be 23%; in the series with endogenous rat GFAP mRNA (20 μM genistein, 72 hours), 43%. Moreover, the “TGF-β1-induced GFAP transcription, % of the control” value was 14% in the series on endogenous rat GFAP mRNA (concurrent: 20 μM genistein and 1 ng/ml TGF-β1, 56 hours); 26% in the series with endogenous rat GFAP mRNA (sequential: 1 ng/ml TGF-β1 48 hours, then 20 μM genistein 8 hours). The “endogenous GFAP transcription, % of the PDGF-BB-alone control” value in the series on endogenous rat GFAP mRNA (concurrent: 20 μM genistein and 10 ng/ml PDGF, 48 hours) is recorded as 6%; with endogenous rat GFAP mRNA (sequential: 10 ng/ml PDGF 24 hours, then 20 μM genistein 24 hours), 8.6%. In addition, in the series on endogenous rat GFAP mRNA (genistein dose experiment, 48 hours), the “reliable inhibitory concentration for GFAP mRNA” value is on record as “higher than 10 μM”.
